Where a name gives a salt, the structure may show the parent alone.
Experiment: Water uptake on exposure to air (Karl Fisher water content)
Type: physicochemical
Details: recrystallized sodium salt 1(b), exposed to air at room temperature for 1 week; 2.9% before exposure; said to indicate fairly high hydroscopic nature

## COc1ccc(C2(C#N)CCC(C(=O)O)CC2)cc1OC1CCCC1 (stereo not drawn) [Example 1, cis-4-cyano-4-[3-(cyclopentyloxy)-4-methoxyphenyl]cyclohexane-1-carboxylic acid sodium salt]
  water content on Karl Fisher after exposure to air: 22.9%

From US20030013905A1, “Salts of cis-4-cyano-4[3(cyclopentyloxy)-4-methoxyphenyl]cyclohexane-1-carboxylic acid” (priority 2002, published 2003)
